Measured values: ChEMBL document CHEMBL1201862, “PubChem BioAssay data set” (2004)
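Five compound concentrations were applied to cells in 96-well plates for 48 hours; endpoints were derived by simple linear interpolation of the resulting dose-response curve. GI50 marks 50% less growth.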 The source made the active and inactive calls. No stated cut-off is given here; in the data, active = GI50 up to about 1.1 µM and inactive = higher.

Tests used:
Assay in all cases: NCI-60 cell line screen, 48 h
MDA-MB-435 = tested on: MDA-MB-435
SR = tested on: SR
NCI-H226 = tested on: NCI-H226
HCC 2998 = tested on: HCC 2998
SW-620 = tested on: SW-620
CCRF-CEM = tested on: CCRF-CEM
CAKI-1 = tested on: CAKI-1
SN12C = tested on: SN12C
IGROV-1 = tested on: IGROV-1
SK-OV-3 = tested on: SK-OV-3
SK-MEL-28 = tested on: SK-MEL-28
Malme-3M = tested on: Malme-3M
OVCAR-4 = tested on: OVCAR-4
OVCAR-8 = tested on: OVCAR-8
RXF 393 = tested on: RXF 393
SF-295 = tested on: SF-295
SNB-19 = tested on: SNB-19
A549 = tested on: A549
M19-MEL = tested on: M19-MEL
DMS-273 = tested on: DMS-273

SMILES	GI50 (MDA-MB-435)	GI50 (SR)	GI50 (NCI-H226)	GI50 (HCC 2998)	GI50 (SW-620)	GI50 (CCRF-CEM)	GI50 (CAKI-1)	GI50 (SN12C)	GI50 (IGROV-1)	GI50 (SK-OV-3)	GI50 (SK-MEL-28)	GI50 (Malme-3M)	GI50 (OVCAR-4)	GI50 (OVCAR-8)	GI50 (RXF 393)	GI50 (SF-295)	GI50 (SNB-19)	GI50 (A549)	GI50 (M19-MEL)	GI50 (DMS-273)
CC(=O)C(CN1CCCCC1)C(c1ccccc1)c1c(O)c2ccccc2oc1=O (stereo not drawn)	> 100 µM (inactive)	> 100 µM (inactive)	> 100 µM (inactive)	> 100 µM (inactive)	> 100 µM (inactive)	> 100 µM (inactive)	> 100 µM (inactive)	> 100 µM (inactive)	> 100 µM (inactive)	> 100 µM (inactive)	> 100 µM (inactive)	> 100 µM (inactive)	> 100 µM (inactive)	> 100 µM (inactive)	> 100 µM (inactive)	> 100 µM (inactive)	> 100 µM (inactive)	> 100 µM (inactive)	–	–
Cc1cc(O)nc(NN2C(Cl)C(=O)C2c2cccc(Cl)c2)n1 (stereo not drawn)	–	16 µM (inactive)	–	31.2 µM (inactive)	38 µM (inactive)	6.49 µM (inactive)	–	20.5 µM (inactive)	14 µM (inactive)	–	22.4 µM (inactive)	–	28.2 µM (inactive)	31.1 µM (inactive)	8.18 µM (inactive)	–	27.9 µM (inactive)	47.8 µM (inactive)	33.9 µM (inactive)	17.1 µM (inactive)
O=c1ccc2ccc(CBr)cc2o1	3.14 µM (inactive)	2.2 µM (inactive)	10.7 µM (inactive)	3.34 µM (inactive)	1.72 µM (inactive)	1.78 µM (inactive)	1.55 µM (inactive)	2.69 µM (inactive)	3.57 µM (inactive)	–	13.6 µM (inactive)	–	–	2.05 µM (inactive)	1.94 µM (inactive)	15.3 µM (inactive)	12.4 µM (inactive)	15.5 µM (inactive)	–	–
COc1cc(C2S/C(=C/c3ccccc3)C(=O)N2c2ccccc2Cl)cc(OC)c1OC (stereo not drawn)	15.6 µM (inactive)	–	> 100 µM (inactive)	33 µM (inactive)	–	–	32.6 µM (inactive)	21.4 µM (inactive)	–	29.6 µM (inactive)	42.2 µM (inactive)	29.8 µM (inactive)	28.2 µM (inactive)	19.3 µM (inactive)	9.53 µM (inactive)	28.9 µM (inactive)	35.5 µM (inactive)	37.1 µM (inactive)	–	–
C=C1C(=O)O[C@@H]2[C@H](O)[C@@H](C)[C@@H]3C=CC(=O)[C@@]3(C)[C@@H](OC(=O)/C(C)=C/C)[C@H]12	–	–	1.12 µM (inactive)	0.656 µM (active)	0.483 µM (active)	0.254 µM (active)	0.782 µM (active)	0.465 µM (active)	0.459 µM (active)	2.39 µM (inactive)	0.344 µM (active)	0.914 µM (active)	1.35 µM (inactive)	0.723 µM (active)	0.63 µM (active)	3.75 µM (inactive)	2.77 µM (inactive)	1.98 µM (inactive)	0.363 µM (active)	0.451 µM (active)
CCCCCCCCCCCCSC(=S)c1c(C)[nH]n(CCCCCCCCCCCC)c1=O	–	> 100 µM (inactive)	> 100 µM (inactive)	> 100 µM (inactive)	77.6 µM (inactive)	48.4 µM (inactive)	> 100 µM (inactive)	77.1 µM (inactive)	> 100 µM (inactive)	> 100 µM (inactive)	> 100 µM (inactive)	34.6 µM (inactive)	> 100 µM (inactive)	91.2 µM (inactive)	–	> 100 µM (inactive)	> 100 µM (inactive)	40.5 µM (inactive)	31.6 µM (inactive)	–
COc1ccc2nc(-n3c(/C=C/c4ccccc4O)nc4ccccc4c3=O)sc2c1	19.7 µM (inactive)	–	36 µM (inactive)	> 100 µM (inactive)	> 100 µM (inactive)	16.1 µM (inactive)	46 µM (inactive)	–	39.6 µM (inactive)	> 100 µM (inactive)	31.4 µM (inactive)	71.6 µM (inactive)	> 100 µM (inactive)	> 100 µM (inactive)	71.6 µM (inactive)	80.5 µM (inactive)	35.5 µM (inactive)	39.4 µM (inactive)	–	–
COC(=O)C(Cc1ccc2c(c1)OCO2)(NC(=O)c1ccccc1)P(=O)(OC)OC (stereo not drawn)	–	> 100 µM (inactive)	> 100 µM (inactive)	> 100 µM (inactive)	> 100 µM (inactive)	> 100 µM (inactive)	> 100 µM (inactive)	> 100 µM (inactive)	> 100 µM (inactive)	> 100 µM (inactive)	> 100 µM (inactive)	–	> 100 µM (inactive)	> 100 µM (inactive)	> 100 µM (inactive)	> 100 µM (inactive)	> 100 µM (inactive)	> 100 µM (inactive)	> 100 µM (inactive)	> 100 µM (inactive)
O=C1CCCN1CCC/N=c1/cc2n(-c3ccc(Cl)cc3)c3ccccc3nc-2cc1Nc1ccc(Cl)cc1	–	–	15.7 µM (inactive)	5.18 µM (inactive)	14.5 µM (inactive)	12.6 µM (inactive)	27 µM (inactive)	14.8 µM (inactive)	2.75 µM (inactive)	46.7 µM (inactive)	23.8 µM (inactive)	16.5 µM (inactive)	5.57 µM (inactive)	14.6 µM (inactive)	1.78 µM (inactive)	19.3 µM (inactive)	34.7 µM (inactive)	15.7 µM (inactive)	2.32 µM (inactive)	15.6 µM (inactive)
O=Cc1ccccc1CCn1c(=O)c2cc3c(=O)n(CCc4ccccc4C=O)c(=O)c3cc2c1=O	–	–	> 100 µM (inactive)	–	> 100 µM (inactive)	> 100 µM (inactive)	–	> 100 µM (inactive)	> 100 µM (inactive)	> 100 µM (inactive)	> 100 µM (inactive)	> 100 µM (inactive)	> 100 µM (inactive)	> 100 µM (inactive)	> 100 µM (inactive)	> 100 µM (inactive)	> 100 µM (inactive)	> 100 µM (inactive)	–	> 100 µM (inactive)
Clc1nc(-[n+]2ccc(-c3ccncc3)cc2)nc(Nc2ccccc2)c1Cl	> 100 µM (inactive)	26.2 µM (inactive)	> 100 µM (inactive)	> 100 µM (inactive)	66.8 µM (inactive)	27.9 µM (inactive)	–	> 100 µM (inactive)	59.7 µM (inactive)	> 100 µM (inactive)	> 100 µM (inactive)	> 100 µM (inactive)	> 100 µM (inactive)	–	> 100 µM (inactive)	–	> 100 µM (inactive)	> 100 µM (inactive)	–	–
COc1ccc(NC(C)=O)cc1N1C(=O)/C(=C\c2ccccc2)SC1c1cc(OC)c(OC)c(OC)c1 (stereo not drawn)	24.9 µM (inactive)	37.8 µM (inactive)	24 µM (inactive)	16.3 µM (inactive)	40.4 µM (inactive)	21.2 µM (inactive)	34.7 µM (inactive)	80.5 µM (inactive)	25.9 µM (inactive)	41 µM (inactive)	80.7 µM (inactive)	24.3 µM (inactive)	–	23.1 µM (inactive)	27 µM (inactive)	42.1 µM (inactive)	34 µM (inactive)	30.1 µM (inactive)	–	–
CC(C)(C)c1ccc2c(c1)OP1(Oc3c(Cl)cc(Cl)c4cccnc34)(O2)Oc2ccc(C(C)(C)C)cc2O1	–	–	8.97 µM (inactive)	11.3 µM (inactive)	6.43 µM (inactive)	3.12 µM (inactive)	3.78 µM (inactive)	11 µM (inactive)	8.55 µM (inactive)	11.9 µM (inactive)	11.3 µM (inactive)	10.8 µM (inactive)	10.3 µM (inactive)	5.31 µM (inactive)	13.3 µM (inactive)	5.42 µM (inactive)	7.53 µM (inactive)	6 µM (inactive)	3.12 µM (inactive)	5.04 µM (inactive)
